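Five compound concentrations were applied to cells in 96-well plates for 48 hours; endpoints were derived by simple linear interpolation of the resulting dose-response curve. At the TGI there is no net growth.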
Key:
Test in all cases: NCI tumour cell line growth inhibition, 48 h
OVCAR-3 ovarian = test system: OVCAR-3 ovarian
HCT-116 colon = test system: HCT-116 colon
NCI-H23 lung = test system: NCI-H23 lung
RPMI-8226 leukemia = test system: RPMI-8226 leukemia
RXF 393 renal = test system: RXF 393 renal
IGROV1 ovarian = test system: IGROV1 ovarian
SK-OV-3 ovarian = test system: SK-OV-3 ovarian
COLO 205 colon = test system: COLO 205 colon
HOP-18 NSCLC = test system: HOP-18 NSCLC
P388/ADR leukemia = test system: P388/ADR leukemia
OVCAR-8 ovarian = test system: OVCAR-8 ovarian
P388 leukemia = test system: P388 leukemia
SNB-75 CNS = test system: SNB-75 CNS
UACC-62 melanoma = test system: UACC-62 melanoma
K-562 leukemia = test system: K-562 leukemia
M19-MEL melanoma = test system: M19-MEL melanoma
NCI/ADR-RES ovarian = test system: NCI/ADR-RES ovarian
SN12K1 renal = test system: SN12K1 renal
HOP-62 NSCLC = test system: HOP-62 NSCLC
CCRF-CEM leukemia = test system: CCRF-CEM leukemia
SW-620 colon = test system: SW-620 colon
KM12 colon = test system: KM12 colon
SK-MEL-28 melanoma = test system: SK-MEL-28 melanoma
NCI-H226 lung = test system: NCI-H226 lung
NCI-H460 lung = test system: NCI-H460 lung
KM20L2 colon = test system: KM20L2 colon
SK-MEL-2 melanoma = test system: SK-MEL-2 melanoma
HCT-15 colon = test system: HCT-15 colon
U251 CNS = test system: U251 CNS
SN12C renal = test system: SN12C renal
A549 NSCLC = test system: A549 NSCLC
SF-268 CNS = test system: SF-268 CNS
SF-539 CNS = test system: SF-539 CNS
DLD-1 colon = test system: DLD-1 colon
UACC-257 melanoma = test system: UACC-257 melanoma
HL-60(TB) leukemia = test system: HL-60(TB) leukemia
OVCAR-5 ovarian = test system: OVCAR-5 ovarian
A498 renal = test system: A498 renal
MALME-3M melanoma = test system: MALME-3M melanoma
EKVX NSCLC = test system: EKVX NSCLC
UO-31 renal = test system: UO-31 renal
MCF7 breast = test system: MCF7 breast
SNB-78 CNS = test system: SNB-78 CNS
HOP-92 NSCLC = test system: HOP-92 NSCLC
NCI-H522 lung = test system: NCI-H522 lung
MOLT-4 leukemia = test system: MOLT-4 leukemia
XF 498 CNS = test system: XF 498 CNS
SF-295 CNS = test system: SF-295 CNS
DMS 273 small cell lung = test system: DMS 273 small cell lung
HCC-2998 colon = test system: HCC-2998 colon
HT29 colon = test system: HT29 colon
SK-MEL-5 melanoma = test system: SK-MEL-5 melanoma
SNB-19 CNS = test system: SNB-19 CNS
DMS 114 small cell lung = test system: DMS 114 small cell lung
LOX IMVI melanoma = test system: LOX IMVI melanoma
OVCAR-4 ovarian = test system: OVCAR-4 ovarian
CAKI-1 renal = test system: CAKI-1 renal

Work on COc1ccc2cc1Oc1ccc(cc1)C[C@H]1c3cc(c(OC)cc3CCN1C)Oc1c(O)c(OC)cc3c1[C@H](C2)N(C)CC3 yielded a TGI (OVCAR-3 ovarian) of 46.8 µM, a TGI (HCT-116 colon) of 36 µM and a TGI (NCI-H23 lung) of 95.5 µM. The TGI (RPMI-8226 leukemia) was 75.2 µM, the TGI (RXF 393 renal) was 45 µM and the TGI (IGROV1 ovarian) was 65.8 µM. For the same compound, the TGI (SK-OV-3 ovarian) was 44.5 µM, the TGI (COLO 205 colon) was 39.4 µM and the TGI (HOP-18 NSCLC) was 139 µM. For the same compound, the TGI (P388/ADR leukemia) was 109 µM, the TGI (OVCAR-8 ovarian) was 8.43 µM and the TGI (P388 leukemia) was 19.8 µM. For the same compound, the TGI (SNB-75 CNS) was 52 µM, the TGI (UACC-62 melanoma) was 44.7 µM and the TGI (K-562 leukemia) was 83.5 µM. For the same compound, the TGI (M19-MEL melanoma) was 43.4 µM, the TGI (NCI/ADR-RES ovarian) was 77.1 µM and the TGI (SN12K1 renal) was 39.2 µM. The TGI (HOP-62 NSCLC) was 65.7 µM, the TGI (CCRF-CEM leukemia) was 83.8 µM and the TGI (SW-620 colon) was 37.2 µM. For the same compound, the TGI (KM12 colon) was 42.6 µM, the TGI (SK-MEL-28 melanoma) was 48.3 µM and the TGI (NCI-H226 lung) was 63 µM. It also gave a TGI (NCI-H460 lung) of 45.2 µM, a TGI (KM20L2 colon) of 4.27 µM and a TGI (SK-MEL-2 melanoma) of 48.5 µM. For the same compound, the TGI (HCT-15 colon) was 33.5 µM, the TGI (U251 CNS) was 60.3 µM and the TGI (SN12C renal) was 88.8 µM. The TGI (A549 NSCLC) was 75 µM, the TGI (SF-268 CNS) was 150 µM and the TGI (SF-539 CNS) was 41.6 µM. For the same compound, the TGI (DLD-1 colon) was 53.7 µM, the TGI (UACC-257 melanoma) was 30.1 µM and the TGI (HL-60(TB) leukemia) was 48.2 µM. For the same compound, the TGI (OVCAR-5 ovarian) was 99.6 µM, the TGI (A498 renal) was 50.4 µM and the TGI (MALME-3M melanoma) was 52.5 µM. For the same compound, the TGI (EKVX NSCLC) was 8.53 µM, the TGI (UO-31 renal) was 58.8 µM and the TGI (MCF7 breast) was 51.5 µM. For the same compound, the TGI (SNB-78 CNS) was 117 µM, the TGI (HOP-92 NSCLC) was 26.9 µM and the TGI (NCI-H522 lung) was 55.7 µM. The TGI (MOLT-4 leukemia) was 26.4 µM, the TGI (XF 498 CNS) was 49.4 µM and the TGI (SF-295 CNS) was 39.7 µM. The TGI (DMS 273 small cell lung) was 40.1 µM, the TGI (HCC-2998 colon) was 24.7 µM and the TGI (HT29 colon) was 55.2 µM. For the same compound, the TGI (SK-MEL-5 melanoma) was 29.4 µM, the TGI (SNB-19 CNS) was 134 µM and the TGI (DMS 114 small cell lung) was 49.7 µM. It also gave a TGI (LOX IMVI melanoma) of 26.7 µM, a TGI (OVCAR-4 ovarian) of 58.1 µM and a TGI (CAKI-1 renal) of 3.55 µM.

— PubChem BioAssay (NCI)
